Experimental data reported in ChEMBL document CHEMBL4613212, “Insights of synthetic analogues of anti-leprosy agents” (Bioorg Med Chem, 2019).
Converted amounts (≈) assume the structure as drawn.

Assays:
Monocyte = assay: Antiinflammatory activity in human monocytes assessed as inhibition of LPS-induced TNFaplha production at 50 uM preincubated for 15 mins followed by LPS addition and measured after 4 hrs by ELISA relative to control; type: functional
[1] = Cytotoxicity against LPS-induced human monocytes assessed as cell viability at 50 uM by tryphan blue staining based assay relative to control; design: species or system Monocyte; settings: read-out: Activity
Enterococcus faecalis [2] = assay: Antimicrobial activity against Enterococcus faecalis ATCC 51922 by broth microdilution assay; type: functional
Klebsiella pneumoniae = assay: Antimicrobial activity against Klebsiella pneumoniae 700603 by broth microdilution assay; type: functional
[3] = system: Mycobacterium tuberculosis; assay: Antitubercular activity against Mycobacterium tuberculosis H37Rv ATCC 27294 incubated for 7 days by microplate alamar blue assay; type: functional; settings: H37Rv ATCC 27294, 168 h
Pseudomonas aeruginosa = assay: Antimicrobial activity against Pseudomonas aeruginosa ATCC 27853 by broth microdilution assay; type: functional
Enterococcus faecalis [4] = assay: Antimicrobial activity against Enterococcus faecalis ATCC 29212 by broth microdilution assay; type: functional
Listeria monocytogenes = assay: Antimicrobial activity against Listeria monocytogenes ATCC 1911 by broth microdilution assay; type: functional
Escherichia coli [5] = assay: Antimicrobial activity against Escherichia coli ATCC 25922 by broth microdilution assay; type: functional
Staphylococcus aureus = assay: Antimicrobial activity against Staphylococcus aureus ATCC 25923 by broth microdilution assay; type: functional
Escherichia coli [6] = assay: Antimicrobial activity against Escherichia coli ATCC 35218 by broth microdilution assay; type: functional
Mycobacterium leprae [7] = assay: Anti-leprotic activity against Mycobacterium leprae assessed as maximum bactericidal dilutions; type: functional
[8] = system: Mycolicibacterium smegmatis; assay: Antimicrobial activity against Mycobacterium smegmatis ATCC 607; type: functional; settings: Mycolicibacterium smegmatis, ATCC 607; read-out: MIC
[9] = Inhibition of Mycobacterium smegmatis ATCC 607 dihydrofolic reductase; design: species or system Mycolicibacterium smegmatis
[10] = system: Mycolicibacterium smegmatis; assay: Inhibition of Mycobacterium smegmatis ATCC 607 dihydrofolic reductase assessed as ratio of Km to Ki
Mycobacterium leprae [11] = assay: Anti-leprotic activity against Mycobacterium leprae infected in 538 CBA mouse assessed as number of Mycobacterium leprae in paw pads at 2 mg/kg administrated via gastric tube 5 times a week and measured 7 months post infection; type: functional
Mycobacterium leprae [12] = assay: Anti-leprotic activity against Mycobacterium leprae infected in 538 CBA mouse assessed as number of Mycobacterium leprae in paw pads at 6 mg/kg administrated via gastric tube 5 times a week and measured 7 months post infection; type: functional
[13] = system: Mycolicibacterium smegmatis; assay: Antimycobacterial activity against Mycobacterium smegmatis mc2 155 incubated for 2 days by spectrophotometric based assay; type: functional; settings: MC2 155, 48 h
[14] = system: Mycolicibacterium smegmatis; assay: Antimicrobial activity against Mycobacterium smegmatis incubated for 24 hrs by broth microdilution assay; type: functional
Mycolicibacterium aurum = assay: Antimicrobial activity against Mycobacterium aurum incubated for 24 hrs by broth microdilution assay; type: functional
Mycolicibacterium vaccae = assay: Antimicrobial activity against Mycobacterium vaccae incubated for 24 hrs by broth microdilution assay; type: functional
[15] = system: Mycolicibacterium fortuitum; assay: Antimicrobial activity against Mycobacterium fortuitum incubated for 24 hrs by broth microdilution assay; type: functional

In the case of `O=C1c2c(F)c(F)c(F)c(F)c2C(=O)N1c1cnc(O)nc1O`, the inhibition at 50 µM (Monocyte) is reported as < 10% and the viability at 50 µM [1] is reported as 95%.

Compound `COc1ccc(/C=N/NC(=S)Nc2ccc(C(F)(F)F)cc2)cc1` has an MIC (Enterococcus faecalis [2]) of 400 µg/mL (≈ 1130 µM), an MIC (Klebsiella pneumoniae) of 400 µg/mL (≈ 1130 µM) and an MIC [3] of 200 µg/mL (≈ 566 µM). The MIC (Pseudomonas aeruginosa) was 400 µg/mL (≈ 1130 µM), the MIC (Enterococcus faecalis [4]) was 400 µg/mL (≈ 1130 µM) and the MIC (Listeria monocytogenes) was 800 µg/mL (≈ 2260 µM). For the same compound, the MIC (Escherichia coli [5]) was 400 µg/mL (≈ 1130 µM), the MIC (Staphylococcus aureus) was 400 µg/mL (≈ 1130 µM) and the MIC (Escherichia coli [6]) was 800 µg/mL (≈ 2260 µM).

In the case of `CCCCCCCCCCC(C(=O)O)C1CCCCC1` (centres undefined), the “fold change (FC)” value (Mycobacterium leprae [7]) is reported as 180.

`O=C(N[C@H](CO)[C@H](O)c1ccc([N+](=O)[O-])cc1)C(Cl)Cl` [CHLORAMPHENICOL] showed an MIC (Enterococcus faecalis [2]) of 200 µg/mL (≈ 619 µM), an MIC (Klebsiella pneumoniae) of 200 µg/mL (≈ 619 µM) and an MIC (Pseudomonas aeruginosa) of 200 µg/mL (≈ 619 µM). It also gave an MIC (Enterococcus faecalis [4]) of 200 µg/mL (≈ 619 µM), an MIC (Listeria monocytogenes) of 100 µg/mL (≈ 309 µM) and an MIC (Escherichia coli [5]) of 25 µg/mL (≈ 77.4 µM). It also gave an MIC (Staphylococcus aureus) of 100 µg/mL (≈ 309 µM) and an MIC (Escherichia coli [6]) of 100 µg/mL (≈ 309 µM).

With `CCCCCCCC(CCC1CCCCC1)C(=O)O` (centres undefined) the “fold change (FC)” value (Mycobacterium leprae [7]) was 160.

`CN(Cc1cnc2nc(N)nc(N)c2n1)c1ccc(C(=O)N[C@@H](CCC(=O)O)C(=O)O)cc1` [METHOTREXATE] showed an MIC [8] of 2200 µM (≈ 1000 µg/mL), a Ki [9] of 350 pM and a Ratio [10] of 11700.

`CCc1nc(N)nc(N)c1-c1ccc(Cl)cc1` [PYRIMETHAMINE] gave an MIC [8] of 101 µM (≈ 25.1 µg/mL), a Ki [9] of 75000 pM and a Ratio [10] of 0.8.

For `FC(F)(F)c1ccc(NC(=S)N/N=C/c2ccccc2)cc1`, the MIC (Enterococcus faecalis [2]) was 400 µg/mL (≈ 1240 µM), the MIC (Klebsiella pneumoniae) was 400 µg/mL (≈ 1240 µM) and the MIC [3] was 200 µg/mL (≈ 619 µM). For the same compound, the MIC (Pseudomonas aeruginosa) was 400 µg/mL (≈ 1240 µM), the MIC (Enterococcus faecalis [4]) was 200 µg/mL (≈ 619 µM) and the MIC (Listeria monocytogenes) was 400 µg/mL (≈ 1240 µM). For the same compound, the MIC (Escherichia coli [5]) was 400 µg/mL (≈ 1240 µM), the MIC (Staphylococcus aureus) was 400 µg/mL (≈ 1240 µM) and the MIC (Escherichia coli [6]) was 400 µg/mL (≈ 1240 µM).

`Oc1ccc(/C=N/NC(=S)Nc2ccc(C(F)(F)F)cc2)cc1` showed an MIC (Enterococcus faecalis [2]) of 400 µg/mL (≈ 1180 µM), an MIC (Klebsiella pneumoniae) of 400 µg/mL (≈ 1180 µM) and an MIC [3] of 400 µg/mL (≈ 1180 µM). It also gave an MIC (Pseudomonas aeruginosa) of 400 µg/mL (≈ 1180 µM), an MIC (Enterococcus faecalis [4]) of 400 µg/mL (≈ 1180 µM) and an MIC (Listeria monocytogenes) of 400 µg/mL (≈ 1180 µM). It also gave an MIC (Escherichia coli [5]) of 400 µg/mL (≈ 1180 µM), an MIC (Staphylococcus aureus) of 400 µg/mL (≈ 1180 µM) and an MIC (Escherichia coli [6]) of 400 µg/mL (≈ 1180 µM).

For `O=C1c2c(F)c(F)c(F)c(F)c2C(=O)N1c1cn(-c2ccccc2)c(=O)[nH]c1=O`, the inhibition at 50 µM (Monocyte) was < 10% and the viability at 50 µM [1] was 95%.

For `CCCCCCCCCC(C(=O)O)C1CCCC1` (centres undefined), the “fold change (FC)” value (Mycobacterium leprae [7]) was 111.

Work on `COc1cc(Oc2cnc(N)nc2N)cc(OC)c1Br` yielded an Activity (Mycobacterium leprae [11]) of 1.27 ×10⁷ No_unit and an Activity (Mycobacterium leprae [12]) of 0.56 ×10⁷ No_unit.

For `O=C1c2ccccc2C(=O)N1c1ccc(S(=O)(=O)Nc2ccccn2)cn1`, the MIC99 [13] was 6100 µM (≈ 2320 µg/mL).

`CC(C)CCc1cnc2nc(N)nc(N)c2n1` gave an MIC [8] of 775 µM (≈ 180 µg/mL), a Ki [9] of 1000 pM and a Ratio [10] of 4100.

In the case of `Nc1nc(N)c2nc(Cc3ccccc3)cnc2n1`, the MIC [8] is reported as > 794 µM, the Ki [9] is reported as 900 pM and the Ratio [10] is reported as 4560.

`CC(C)Cc1cnc2nc(N)nc(N)c2n1` gave an MIC [8] of 688 µM (≈ 150 µg/mL), a Ki [9] of 900 pM and a Ratio [10] of 4560.

`CC(C)c1ccc(/C=N/NC(=S)Nc2ccc(C(F)(F)F)cc2)cc1` gave an MIC (Enterococcus faecalis [2]) of 400 µg/mL (≈ 1090 µM), an MIC (Klebsiella pneumoniae) of 400 µg/mL (≈ 1090 µM) and an MIC [3] of 200 µg/mL (≈ 547 µM). For the same compound, the MIC (Pseudomonas aeruginosa) was 400 µg/mL (≈ 1090 µM), the MIC (Enterococcus faecalis [4]) was 400 µg/mL (≈ 1090 µM) and the MIC (Listeria monocytogenes) was 400 µg/mL (≈ 1090 µM). It also gave an MIC (Escherichia coli [5]) of 400 µg/mL (≈ 1090 µM), an MIC (Staphylococcus aureus) of 400 µg/mL (≈ 1090 µM) and an MIC (Escherichia coli [6]) of 800 µg/mL (≈ 2190 µM).

For `NC(=O)c1cc([N+](=O)[O-])cc([N+](=O)[O-])c1SC(=S)N1CCCC1`, the MIC [14] was 50 µg/mL (≈ 140 µM), the MIC (Mycolicibacterium aurum) was 6.25 µg/mL (≈ 17.5 µM) and the MIC (Mycolicibacterium vaccae) was 0.4 µg/mL (≈ 1.12 µM). For the same compound, the MIC [15] was 6.25 µg/mL (≈ 17.5 µM).

For `N#Cc1cc([N+](=O)[O-])cnc1SC(=S)N1CCCCC1`, the MIC [14] was 3.12 µg/mL (≈ 10.1 µM), the MIC (Mycolicibacterium aurum) was 1.56 µg/mL (≈ 5.06 µM) and the MIC (Mycolicibacterium vaccae) was 1.56 µg/mL (≈ 5.06 µM). For the same compound, the MIC [15] was 1.56 µg/mL (≈ 5.06 µM).

For `CCCCCCCCC(C(=O)O)C1CCCCC1` (centres undefined), the “fold change (FC)” value (Mycobacterium leprae [7]) was 110.

`COc1cc(Sc2cnc(N)nc2N)cc(OC)c1Br` gave an Activity (Mycobacterium leprae [11]) of 0.66 ×10⁷ No_unit and an Activity (Mycobacterium leprae [12]) of 0.02 ×10⁷ No_unit.

With `CCCCCCC(CCC1CCCC1)C(=O)O` (centres undefined) the “fold change (FC)” value (Mycobacterium leprae [7]) was 320.

Work on `CCCCCCCCC(CCC1CCCO1)C(=O)O` (centres undefined) yielded an MIC99 [13] of 9600 µM (≈ 2600 µg/mL).

For `O=C1c2c(F)c(F)c(F)c(F)c2C(=O)N1c1ccc(F)c(F)c1`, the inhibition at 50 µM (Monocyte) was < 10% and the viability at 50 µM [1] was 74%.

In the case of `CN(C)c1ccc(/C=N/NC(=S)Nc2ccc(C(F)(F)F)cc2)cc1`, the MIC (Enterococcus faecalis [2]) is reported as 400 µg/mL (≈ 1090 µM), the MIC (Klebsiella pneumoniae) is reported as 400 µg/mL (≈ 1090 µM) and the MIC [3] is reported as 200 µg/mL (≈ 546 µM). The MIC (Pseudomonas aeruginosa) was 400 µg/mL (≈ 1090 µM), the MIC (Enterococcus faecalis [4]) was 400 µg/mL (≈ 1090 µM) and the MIC (Listeria monocytogenes) was 400 µg/mL (≈ 1090 µM). It also gave an MIC (Escherichia coli [5]) of 400 µg/mL (≈ 1090 µM), an MIC (Staphylococcus aureus) of 400 µg/mL (≈ 1090 µM) and an MIC (Escherichia coli [6]) of 400 µg/mL (≈ 1090 µM).

Compound `CCCCc1cnc2nc(N)nc(N)c2n1` has an MIC [8] of 917 µM (≈ 200 µg/mL), a Ki [9] of 1000 pM and a Ratio [10] of 4100.

In the case of `Cc1ccc(/C=N/NC(=S)Nc2ccc(C(F)(F)F)cc2)cc1`, the MIC (Enterococcus faecalis [2]) is reported as 400 µg/mL (≈ 1190 µM), the MIC (Klebsiella pneumoniae) is reported as 400 µg/mL (≈ 1190 µM) and the MIC [3] is reported as 200 µg/mL (≈ 593 µM). For the same compound, the MIC (Pseudomonas aeruginosa) was 400 µg/mL (≈ 1190 µM), the MIC (Enterococcus faecalis [4]) was 400 µg/mL (≈ 1190 µM) and the MIC (Listeria monocytogenes) was 800 µg/mL (≈ 2370 µM). It also gave an MIC (Escherichia coli [5]) of 400 µg/mL (≈ 1190 µM), an MIC (Staphylococcus aureus) of 400 µg/mL (≈ 1190 µM) and an MIC (Escherichia coli [6]) of 800 µg/mL (≈ 2370 µM).

`O=C1c2ccccc2C(=O)N1c1cnc(S(=O)(=O)Nc2ccccn2)cn1` showed an MIC99 [13] of 3000 µM (≈ 1140 µg/mL).

With `Nc1nc(N)c2nc(CNc3ccc(C(=O)N[C@@H](CCC(=O)O)C(=O)O)cc3)cnc2n1` [AMINOPTERIN] the MIC [8] was 742 µM (≈ 327 µg/mL), the Ki [9] was 180 pM and the Ratio [10] was 23100.
